# From US4261910A, “Process for the preparation of Chlorambucil derivatives” (Kureha Kagaku Kogyo Kabushiki Kaisha, priority 1978, dated 1981)
# Like-named read-outs stand apart in the source and are kept apart here.
# What was measured:
# Acute toxicity (LD50) = assay: Acute toxicity (LD50); design: species or system mice (ICR-JCL); details: mouse, in vivo; for LD50 at 168 h: mice; for LD50: Test 2, route and unit inferred
# Procedure: In the measurement of LD50, eight ICR-JCL female mice (5 week age) were used as one group to breed in a transparent polycage, and each drug was dissolved in olive oil and administrated by routes of intraperitoneal injection (i.p.), oral administration (p.o.) and subcutaneous injection (s.c.), to the mice at one dose, and then, their value of LD50 by Litchfield-Wilcoxon graph method is obtained after 7 days. LD50 of Chlorambucil was i.p. 20 mg./kg., p.o. 80 mg./kg., and s.c. 26 mg./kg., LD50 of the sample No. 2 in Table 1 of the present invention was i.p. greater than 3000 mg./kg., p.o. greater than 6000 mg./kg. and s.c. greater than 3000 mg./kg.. […]
# [1] = tested on: human breast cancer cells having steroid hormone receptor; assay: Antitumor test (in vivo), implanted human breast cancer, drug in olive oil; design: species or system human (implanted in BALB/C-nu/nu mice)
# [2] = tested on: human breast cancer cells having steroid hormone receptor; assay: as above; design: species or system human (implanted in BALB/C-nu/nu mice); details: oral administration
# Text: (§1) Pieces of human breast cancer cells having steroid hormone receptor were subcutaneously implanted under the arm of mice (BALB/C-nu/nu) (5 week age) to form solid tumors. After the solid tumors were established, each dispersion or solution of the active ingredient in olive oil was administrated by oral dose or intraperitoneal injection each other day for 10 times or every days for 20 times. Twenty five days from the initial administration, the tumors were excised. Efficiency of inhibition of tumor proliferation was measured from (A) each average weight of excised tumors for 10 mice (the active ingredient was administrated) and (B) each average weight of excised tumors for 10 control mice. [formula]
# [3] = tested on: spleen, uterus and thymus; assay: Observation in autopsy; type: in vivo, mice (BALB/C-nu/nu); details: autopsy after administration
# Text: as §1
# [4] = tested on: human breast cancer cells having steroid hormone receptor; assay: Test 2: antitumor effect, dispersion in Polysolvate 80, intraperitoneal injection; type: in vivo, human (implanted in BALB/C-nu/nu mice); details: Polysolvate 80 dispersion
# Text: as §1
# In accordance with the test I, except administrating each active ingredient in a form of dispersion dispersed in Polysolvate 80 (emulsifier) by an intraperitoneal injection in the test of antitumor effect.
# estrogen receptor = assay: Test 3: binding function to estrogen sensitive cells (displacement of 3H-estradiol from uterus of rabbit)
# Procedure: Binding function of 3-hydroxy-1,3,5(10)-estratriene-17β-[4-{p-[bis(2-chloroethyl)amino]phenyl}butyryloxy]acetate to estrogen sensitive cells.
# Estradiol labelled by tritium (^3 H) was incubated with uterus of rabbit to bind it and then, the sample was added to the system to measure the amount of free ^3 H-estradiol which was replaced by the […].
# [5] = ip, single dose in olive oil, i.p., 7 days, read-out: LD50
# [6] = po, oral administration, Table 1, read-out: LD50 (Oral administration)
# [7] = po, single dose in olive oil, p.o., 7 days, read-out: LD50
# [8] = sc, single dose in olive oil, s.c., 7 days, read-out: LD50
# [9] = sc, subcutaneous administration, Table 1, read-out: LD50 (Subcutaneous administration)
# [10] = subcutaneous administration, 5 mg/kg
# [11] = subcutaneous administration, 10 mg/kg
Structure (SMILES),LD50 at 168 h (Acute toxicity (LD50); [5]) [mg/kg],LD50 at 168 h (Acute toxicity (LD50); [6]) [mg/kg],LD50 at 168 h (Acute toxicity (LD50); [7]) [mg/kg],LD50 at 168 h (Acute toxicity (LD50); [8]) [mg/kg],LD50 at 168 h (Acute toxicity (LD50); [9]) [mg/kg],"Efficiency of inhibition [1, 10] [%]","Survived ratio [1, 10]","Efficiency of inhibition [1, 11] [%]","Survived ratio [1, 11]",Efficiency of inhibition ([2]; 10 mg/kg) [%],Survived ratio ([2]; 10 mg/kg),Efficiency of inhibition ([2]; 15 mg/kg) [%],Survived ratio ([2]; 15 mg/kg),LD50 (Acute toxicity (LD50); ip) [mg/kg],"changes of spleen, uterus and thymus in autopsy [3]","Efficiency of inhibition ([1]; subcutaneous and oral administration, 15 mg./kg. (text, about)) [%]",Inhibitory effect (%) ([4]; 5 mg./kg.),Inhibitory effect (%) ([4]; 0.5 mg./kg.),binding function to estrogen receptor (estrogen receptor),free 3H-estradiol (displacement) (estrogen receptor; compared with estradiol)
"C[C@]12CC[C@@H]3c4ccc(OC(=O)c5ccccc5)cc4CC[C@H]3[C@@H]1CC[C@@H]2OC(=O)COC(=O)CCCc1ccc(N(CCCl)CCCl)cc1 [Sample No. 2, 3-benzoyloxy-1,3,5(10)-estratriene-17β-[4-{p-[bis(2-chloroethyl)amino]phenyl}butyryloxy]acetate]",> 3000,> 6000,> 6000,> 3000,> 2000,90,10/10,98,10/10,92,10/10,98,10/10,,,,,,,
"CC(=O)Oc1ccc2c(c1)CC[C@@H]1[C@@H]2CC[C@]2(C)[C@@H](OC(=O)COC(=O)CCCc3ccc(N(CCCl)CCCl)cc3)CC[C@@H]12 [Sample No. 3, 3-acetoxy-1,3,5(10)-estratriene-17β-[4-{p-[bis(2-chloroethyl)amino]phenyl}butyryloxy]acetate]",,> 3000,,,> 2000,93,10/10,95,10/10,91,10/10,93,10/10,,,,,,,
"CCC(=O)Oc1ccc2c(c1)CC[C@@H]1[C@@H]2CC[C@]2(C)[C@@H](OC(=O)COC(=O)CCCc3ccc(N(CCCl)CCCl)cc3)CC[C@@H]12 [Sample No. 4, 3-propionyloxy-1,3,5(10)-estratriene-17β-[4-{p-[bis(2-chloroethyl)amino]phenyl}butyryloxy]acetate]",,> 3000,,,> 2000,92,10/10,94,10/10,93,10/10,97,10/10,,,,,,,
"O=C(O)CCCc1ccc(N(CCCl)CCCl)cc1 [Sample No. 1, 4-{p-[bis(2-chloroethyl)amino]phenyl}butyric acid, reference compound]",20,80,80,26,26,53,9/10,71,7/10,55,8/10,70,7/10,20,"serious changes of spleen, uterus and thymus were found",50 to 70,30,,,
"C[C@]12CC[C@@H]3c4ccc(O)cc4CC[C@H]3[C@@H]1CC[C@@H]2OC(=O)COC(=O)CCCc1ccc(N(CCCl)CCCl)cc1 [3-hydroxy-1,3,5(10)-estratriene-17β-[4-{p-[bis(2-chloroethyl)amino]phenyl}butyryloxy]acetate]",,,,,,,,,,,,,,> 1000,,,97,91,has the binding function to estrogen receptor,free ^3 H-estradiol was increased as the same with estradiol itself
